Where a name gives a salt, the structure may show the parent alone.
Tests used:
bacteria = details: at clinically relevant doses; cited from earlier work
[1] = solid-state stability of avibactam forms against moisture, temperature stress and storage; type: physicochemical
[2] = cited from earlier work

For `NC(=O)[C@@H]1CC[C@@H]2CN1C(=O)N2OS(=O)(=O)O` [Avibactam, [(2S,5R)-2-carbamoyl-7-oxo-1,6-diazabicylco[3.2.1]octan-6-yl] hydrogen sulfate], the “antibacterial activity in itself” value (bacteria) is listed as “no antibacterial activity”.

For `NC(=O)[C@@H]1CC[C@@H]2CN1C(=O)N2OS(=O)(=O)O` [form A, avibactam sodium], the “behaviour upon further temperature stress” value [1] was “dehydrates to the anhydrous form B”.

For `NC(=O)[C@@H]1CC[C@@H]2CN1C(=O)N2OS(=O)(=O)O` [form C, avibactam sodium], the “polymorphic stability (conversion to other crystalline forms)” value ([2]; ambient conditions and conditions of manufacturing of solid pharmaceutical dosage forms) is listed as “does not convert to other crystalline forms”.

In the case of `NC(=O)[C@@H]1CC[C@@H]2CN1C(=O)N2OS(=O)(=O)O` [form E, avibactam sodium], the “temperature above which the form dehydrates to monohydrate form A” value [1] is listed as “above 60 °C”, the “relative humidity above which the form is particularly stable” value ([2]; per WO 2011/042560 A1) is listed as over 70% and the “stability during long storage and at higher temperature” value ([2]; per WO 2011/042560 A1) is listed as “tends to lose water and to hydrolyze”.

Reference: patent publication US10919893B2, “Process for the preparation of crystalline form C of avibactam sodium” (Sandoz AG, priority 2017, dated 2021)
